Source: US20250288584A1, “COMBINATIONS COMPRISING POSITIVE ALLOSTERIC MODULATORS OR ORTHOSTERIC AGONISTS OF METABOTROPIC GLUTAMATERGIC RECEPTOR SUBTYPE 2 AND THEIR USE” (JANSSEN PHARMACEUTICA NV, priority 2014, published 2025)
Where “and” joins values, the source holds several entries; their conditions need not be identical. Equal values may be shown once. Entries after “also recorded” stand apart in the source; their conditions may differ. Read-outs that look alike come from different tables or passages of the source.

Tests used:
Format in all cases: in vivo, mice
[1] = tested on: 6 Hz (44 mA) psychomotor seizures; test: 6 Hz psychomotor seizure test, 44 mA (alone, combination with LEV, isobolographic study); conditions: for ED50 / ED50 (95% CI) 44 mA: s.c.; for ED50: read-out: ED50 (95% CI) 44 mA
How it was run: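 Mice dosed s.c. or p.o. at 0.01 mL/g, alone or with LEV at fixed dose ratios proportional to ED50 values. Focal seizures induced by corneal stimulation (6 Hz, 0.2 msec pulse, 3 sec, 44 mA); animals without stun, forelimb clonus, vibrissae twitch or Straub-tail were counted as protected. ED50 values derived, with combinations analysed isobolographically.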

[2] = Minimal motor impairment (rotarod)
[3] = Plasma and brain levels (pK/pD analysis); conditions: for concentration at 0.25 h / concentration at 0.5 h / concentration at 1 h / concentration at 2 h / concentration at 4 h: mouse, plasma, subcutaneous
Description: In various tests, animals were sacrificed following testing, and trunk blood and/or brain tissue (whole brains) was collected for quantification of drug levels. Immediately after testing, animals were decapitated and trunk blood was collected into a BD Vacutainer® tube containing K2EDTA and chilled on ice until centrifugation. Following centrifugation (13000-18000 rpm, 5-7 min), the plasma was removed and transferred to a labeled microcentrifuge tube and stored at −80° C. For brain tissue collection, brains were removed immediately following decapitation and flash frozen. The frozen sample was placed in a labeled centrifuge tube and stored at −80° C.
In addition to recording the efficacy and toxicity data for these compounds alone or in combination, both plasma and brain samples were collected from each of the groups for pharmacokinetic/pharmacokinetic analysis.

[4] = 10 mg/kg s.c., 0.25 h, 32 mA group
[5] = 20 mg/kg s.c., 0.25 h, 32 mA group
[6] = 10 mg/kg, 10 mg/kg s.c., 32 mA group, read-out: Co. No. 25-a mean plasma levels
[7] = 20 mg/kg, 20 mg/kg s.c., 32 mA group, read-out: Co. No. 25-a mean plasma levels

- Co. No. 25-a mean plasma levels (ng/mL) [3, 4]: 6,113 ng/mL
- Co. No. 25-a mean plasma levels (ng/mL) [3, 5]: 5,570 ng/mL
- concentration at 0.25 h ([3]; 1 mg/kg, 1 mg/kg s.c., 0.25 h, 32 mA group, read-out: Co. No. 25-a mean plasma levels): 466 ng/mL
- concentration at 0.25 h ([3]; 5 mg/kg, 5 mg/kg s.c., 0.25 h, 32 mA group, read-out: Co. No. 25-a mean plasma levels): 2560 ng/mL
- concentration at 0.25 h ([3]; 5 mg/kg, 5 mg/kg s.c., 44 mA group, read-out: Co. No. 25-a mean plasma levels): 1430 ng/mL
- concentration at 0.25 h ([3]; 10 mg/kg, 10 mg/kg s.c., 0.25 h, 32 mA group, read-out: Co. No. 25-a mean plasma levels): 11000 ng/mL
- concentration at 0.25 h ([3]; 10 mg/kg, 10 mg/kg s.c., 0.25 h, 32 mA group, read-out: Co. No. 25-a mean plasma levels, statistical outlier removed): 11000 ng/mL
- concentration at 0.5 h [3, 6]: 3330 ng/mL
- concentration at 1 h [3, 6]: 700 ng/mL
- concentration at 2 h [3, 6]: 256 ng/mL
- concentration at 4 h [3, 6]: 40 ng/mL
- concentration at 0.25 h ([3]; 10 mg/kg, 10 mg/kg s.c., 44 mA group, read-out: Co. No. 25-a mean plasma levels): 4340 ng/mL
- concentration at 0.25 h ([3]; 10 mg/kg, 10 mg/kg s.c., 44 mA group, read-out: Co. No. 25-a mean plasma levels, statistical outlier removed): 4340 ng/mL
- concentration at 0.25 h ([3]; 15 mg/kg, 15 mg/kg s.c., 0.25 h, 32 mA group, read-out: Co. No. 25-a mean plasma levels): 1200 ng/mL
- concentration at 0.25 h ([3]; 20 mg/kg, 20 mg/kg s.c., 0.25 h, 32 mA group, read-out: Co. No. 25-a mean plasma levels): 4100 ng/mL
- concentration at 0.5 h [3, 7]: 2800 ng/mL
- concentration at 1 h [3, 7]: 1760 ng/mL
- concentration at 2 h [3, 7]: 618 ng/mL
- concentration at 4 h [3, 7]: 28 ng/mL
- concentration at 0.25 h ([3]; 20 mg/kg, 20 mg/kg s.c., 44 mA group, read-out: Co. No. 25-a mean plasma levels): 3370 ng/mL
- concentration at 0.25 h ([3]; 30 mg/kg, 30 mg/kg s.c., 44 mA group, read-out: Co. No. 25-a mean plasma levels): 7220 ng/mL
- concentration at 0.25 h ([3]; 40 mg/kg, 40 mg/kg s.c., 44 mA group, read-out: Co. No. 25-a mean plasma levels): 6260 ng/mL
Structure (SMILES): CCCCn1ccc(N2CCC(c3ccc(F)cc3F)CC2)c(Cl)c1=O [Co. No. 25-a]
- activity when administered alone ([1]; 10 mg/kg s.c.): did not protect; also recorded: Co. No. 25-a (s.c.) 10 mg/kg tested in combination with LEV (i.p.)-Co. No. 25-a 10 mg/kg, not active when administered alone
- responders at 5 mg/kg ([1]; Mus musculus, sc, 0.25 h, 5 mg/kg s.c., 0.25 h, read-out: # protected/# tested): 0%
- responders at 10 mg/kg ([1]; Mus musculus, sc, 0.25 h, 10 mg/kg s.c., 0.25 h, read-out: # protected/# tested (converted)): 0%
- responders at 20 mg/kg ([1]; Mus musculus, sc, 0.25 h, 20 mg/kg s.c., 0.25 h, read-out: # protected/# tested (converted)): 25%
- responders at 30 mg/kg ([1]; Mus musculus, sc, 0.25 h, 30 mg/kg s.c., 0.25 h, read-out: # protected/# tested (converted)): 37.5%
- responders at 40 mg/kg ([1]; Mus musculus, sc, 0.25 h, 40 mg/kg s.c., 0.25 h, read-out: # protected/# tested (converted)): 87.5%
- ED50 ([1]; Mus musculus, sc, 0.25 h, 0.25 hr TPE): 29.1 mg/kg
- ED50 ([1]; Mus musculus, sc, 1 h, 1 hr TPE): 25.9 mg/kg
- ED50 (95% CI) 44 mA ([1]; 0.25 hr TPE): ED50 (95% CI): 29.1 mg/kg (21.6 to 39.6)
- ED50 (95% CI) 44 mA ([1]; 1 hr TPE): 1 hr TPE: 25.9 mg/kg
- # rotarod motor impairment/# tested ([2]; 1 mg/kg s.c., 0.25 h, 32 mA group): 0/8
- # rotarod motor impairment/# tested ([2]; 5 mg/kg s.c., 0.25 h, 32 mA group): 0/8
- # rotarod motor impairment/# tested ([2]; 5 mg/kg s.c., 0.25 h, 44 mA group): 1/8
- # rotarod motor impairment/# tested [2, 4]: 0/4 and 0/8
- # rotarod motor impairment/# tested ([2]; 10 mg/kg s.c., 0.25 h, 44 mA group): 0/8
- # rotarod motor impairment/# tested ([2]; 10 mg/kg s.c., 0.5 h, 32 mA group): 0/4
- # rotarod motor impairment/# tested ([2]; 10 mg/kg s.c., 1 h, 32 mA group): 1/4
- # rotarod motor impairment/# tested ([2]; 10 mg/kg s.c., 2 h, 32 mA group): 0/4
- # rotarod motor impairment/# tested ([2]; 10 mg/kg s.c., 4 h, 32 mA group): 0/4
- # rotarod motor impairment/# tested ([2]; 15 mg/kg s.c., 0.25 h, 32 mA group): 0/8
- # rotarod motor impairment/# tested [2, 5]: 0/4 and 0/8
- # rotarod motor impairment/# tested ([2]; 20 mg/kg s.c., 0.25 h, 44 mA group): 0/8
- # rotarod motor impairment/# tested ([2]; 20 mg/kg s.c., 0.5 h, 32 mA group): 1/4
- # rotarod motor impairment/# tested ([2]; 20 mg/kg s.c., 1 h, 32 mA group): 1/4
- # rotarod motor impairment/# tested ([2]; 20 mg/kg s.c., 2 h, 32 mA group): 0/4
- # rotarod motor impairment/# tested ([2]; 20 mg/kg s.c., 4 h, 32 mA group): 1/4
- # rotarod motor impairment/# tested ([2]; 30 mg/kg s.c., 0.25 h, 44 mA group): 0/8
- # rotarod motor impairment/# tested ([2]; 40 mg/kg s.c., 0.25 h, 44 mA group): 0/8
